Data reported in the NIST ThermoML archive (doi:10.1021/je100100n).

Legend:
[1] = 101.3 kPa, Liquid
[2] = xn = mol fraction of the nth substance listed; details: 101 kPa, Liquid

CCOC(=O)CC(=O)OCC [diethyl 1,3-propanedioate]
[1]
Details	mass density [kg/m3]
288.15 K	1060.33
298.15 K	1049.6
313.15 K	1033.5
328.15 K	1017.34

CC(C)O [propan-2-ol]
[1]
Details	mass density [kg/m3]
288.15 K	789.342
298.15 K	780.99
313.15 K	767.922
328.15 K	754.001

CC(C)CO [2-methyl-1-propanol]
[1]
Details	mass density [kg/m3]
288.15 K	805.6
298.15 K	797.916
313.15 K	786.069
328.15 K	773.692

CO [methanol]
[1]
Details	mass density [kg/m3]
288.15 K	796.406
298.15 K	786.987
313.15 K	772.74
328.15 K	758.201

CCO [ethanol]
[1]
Details	mass density [kg/m3]
288.15 K	794.044
298.15 K	785.489
313.15 K	772.42
328.15 K	758.958

CCCCO [butan-1-ol]
[1]
Details	mass density [kg/m3]
288.15 K	813.77
298.15 K	806.137
313.15 K	794.488
328.15 K	782.477

CCOC(=O)CC(=O)OCC [diethyl 1,3-propanedioate] + CC(C)O
mass density [kg/m3], [2]
Details	288.15 K	298.15 K	313.15 K	328.15 K
x1 = 0.1001	836.917	827.809	813.707	798.938
x1 = 0.2	877.015	867.404	852.617	837.294
x1 = 0.3	911.283	901.308	886.063	870.365
x1 = 0.3501	926.715	916.6	901.155	885.344
x1 = 0.4	940.924	930.696	915.119	899.194
x1 = 0.455	955.561	945.23	929.523	913.507
x1 = 0.4999	966.784	956.373	940.573	924.508
x1 = 0.5501	978.638	968.162	952.282	936.171
x1 = 0.5999	989.637	979.111	963.18	947.033
x1 = 0.6499	1000.13	989.567	973.566	957.417
x1 = 0.7001	1010.03	999.417	983.39	967.228
x1 = 0.8	1028.36	1017.69	1001.63	985.453
x1 = 0.8995	1044.94	1034.26	1018.18	1002.01
x1 = 1	1060.33	1049.6	1033.5	1017.34
